Measurements: patent publication US8895761B2, “4-phenylpyrane-3,5-diones, 4-phenylthiopyrane-3,5-diones and 2-phenylcyclohexane-1,3,5-triones as herbicides” (Syngenta Limited, priority 2007, dated 2014)

Columns and labels:
Type in all cases: in vivo
[1] = system: Echinochloa crus-galli (ECHCG); assay: Pre-emergence herbicidal glasshouse test, Echinochloa crus-galli; settings: rate 250 g/ha, evaluated after 13 days, scale 100 = total damage to plant, 0 = no damage; for pest or weed control at 250 g/ha: Echinochloa crus-galli, 312 h
Method in brief: (§1)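 Visual damage scores (0 = undamaged, top = plant totally killed) were taken 13 days after spraying. Treatment was given one day after sowing or at day 8 of cultivation, under 24/16° C. glasshouse conditions.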

Setaria faberi (SETFA) [2] = assay: Post-emergence herbicidal glasshouse test, Setaria faberi; settings: rate 250 g/ha, evaluated after 13 days, scale 100 = total damage to plant, 0 = no damage; for pest or weed control at 250 g/ha: Setaria faberi, 312 h
Experimental: (§2) Seeds of a variety of test species were sown in standard soil in pots. After cultivation for one day (pre-emergence) or after 8 days cultivation (post-emergence) under controlled conditions in a glasshouse (at 24/16° C., day/night; 14 hours light; 65% humidity), the plants were sprayed with an aqueous spray solution derived from the formulation of the technical active ingredient in acetone/water (50:50) solution containing 0.5% Tween 20 (polyoxyethelyene sorbitan monolaurate, CAS RN 9005-64-5). The test plants were then grown in a glasshouse under controlled conditions in a glasshouse (at 24/16° C., day/night; 14 hours light; 65% humidity) and watered twice daily. After 13 days for pre and post-emergence, the test was evaluated ([…] to plant; 0=no damage to plant).
(§3) Setaria faberi (SETFA), Lolium perenne (LOLPE), Alopecurus myosuroides (ALOMY), Echinochloa crus-galli (ECHCG) and Avena fatua (AVEFA).

[3] = system: Echinochloa crus-galli (ECHCG); assay: Post-emergence herbicidal glasshouse test, Echinochloa crus-galli; settings: rate 250 g/ha, evaluated after 13 days, scale 100 = total damage to plant, 0 = no damage; for pest or weed control at 250 g/ha: Echinochloa crus-galli, 312 h
Method in brief: as §1

Setaria faberi (SETFA) [4] = assay: Pre-emergence herbicidal glasshouse test, Setaria faberi; settings: rate 250 g/ha, evaluated after 13 days, scale 100 = total damage to plant, 0 = no damage; for pest or weed control at 250 g/ha: Setaria faberi, 312 h
Experimental: as §2, §3

Avena fatua (AVEFA) [5] = assay: Post-emergence herbicidal glasshouse test, Avena fatua; settings: rate 250 g/ha, evaluated after 13 days, scale 100 = total damage to plant, 0 = no damage; for pest or weed control at 250 g/ha: Avena fatua, 312 h
Method in brief: as §1

[6] = system: Alopecurus myosuroides (ALOMY); assay: Post-emergence herbicidal glasshouse test, Alopecurus myosuroides; settings: rate 250 g/ha, evaluated after 13 days, scale 100 = total damage to plant, 0 = no damage; for pest or weed control at 250 g/ha: Alopecurus myosuroides, 312 h
Method in brief: as §1

[7] = system: Alopecurus myosuroides (ALOMY); assay: Pre-emergence herbicidal glasshouse test, Alopecurus myosuroides; settings: rate 250 g/ha, evaluated after 13 days, scale 100 = total damage to plant, 0 = no damage; for pest or weed control at 250 g/ha: Alopecurus myosuroides, 312 h
Method in brief: as §1

Avena fatua (AVEFA) [8] = assay: Pre-emergence herbicidal glasshouse test, Avena fatua; settings: rate 250 g/ha, evaluated after 13 days, scale 100 = total damage to plant, 0 = no damage; for pest or weed control at 250 g/ha: Avena fatua, 312 h
Method in brief: as §1

Structure (SMILES) | pest or weed control at 250 g/ha [1] | pest or weed control at 250 g/ha (Setaria faberi (SETFA) [2]) | pest or weed control at 250 g/ha [3] | pest or weed control at 250 g/ha (Setaria faberi (SETFA) [4]) | pest or weed control at 250 g/ha (Avena fatua (AVEFA) [5]) | pest or weed control at 250 g/ha [6] | pest or weed control at 250 g/ha [7] | pest or weed control at 250 g/ha (Avena fatua (AVEFA) [8]) | damage to plant SETFA, pre-emergence activity (Setaria faberi (SETFA) [4]) | damage to plant ALOMY, pre-emergence activity [7] | damage to plant ECHCG, pre-emergence activity [1] | damage to plant SETFA, post-emergence activity (Setaria faberi (SETFA) [2]) | damage to plant ECHCG, post-emergence activity [3] | damage to plant AVEFA, post-emergence activity (Avena fatua (AVEFA) [5]) | damage to plant ALOMY, post-emergence activity [6] | damage to plant AVEFA, pre-emergence activity (Avena fatua (AVEFA) [8])
CCc1cc(-c2ccccc2)ccc1C1=C(O)[C@@]2(C)CC[C@H](O2)C1=O (racemic) [Compound A-4] | 40% | 60% | 80% | 20% | 0% | 80% | 40% | 0% |  |  |  |  |  |  |  | 
CCc1cc(-c2ccc(Cl)cc2)ccc1C1=C(O)[C@@]2(C)CC[C@H](O2)C1=O (racemic) [Compound A-5] | 40% | 100% | 100% | 70% | 70% | 90% | 30% | 0% |  |  |  |  |  |  |  | 
CCc1cc(-c2ccc(C)cc2)ccc1C1=C(O)[C@@]2(C)CC[C@H](O2)C1=O (racemic) [Compound A-6] | 0% | 80% | 80% | 0% | 30% | 70% | 0% | 0% |  |  |  |  |  |  |  | 
Cc1cc(-c2ccc(Cl)cc2)ccc1C1=C(O)[C@@]2(C)CC[C@H](O2)C1=O (racemic) [Compound A-10] | 30% | 100% | 100% | 0% | 50% | 90% | 0% | 0% |  |  |  |  |  |  |  | 
CCc1cc(-c2ccc(Cl)cc2)cc(CC)c1C1=C(O)[C@@]2(C)CC[C@H](O2)C1=O (racemic) [Compound A-11] | 100% | 100% | 100% | 100% | 100% | 100% | 80% | 100% |  |  |  |  |  |  |  | 
CCc1cc(-c2ccc(C)cc2)cc(CC)c1C1=C(O)[C@@]2(C)CC[C@H](O2)C1=O (racemic) [Compound A-12] | 70% | 100% | 100% | 80% | 0% | 70% | 30% | 20% |  |  |  |  |  |  |  | 
CCc1cc(-c2ccc(Cl)c(F)c2)ccc1C1=C(O)[C@@]2(C)CC[C@H](O2)C1=O (racemic) [Compound A-24] | 100% | 100% | 100% | 90% | 80% | 90% | 70% | 60% |  |  |  |  |  |  |  | 
CCc1cc(-c2c(F)cc(Cl)cc2F)ccc1C1=C(O)[C@@]2(C)CC[C@H](O2)C1=O (racemic) [Compound A-27] | 40% | 100% | 100% | 30% | 70% | 90% | 20% | 0% |  |  |  |  |  |  |  | 
CCc1cc(-c2ccc(Cl)c(F)c2Cl)ccc1C1=C(O)[C@@]2(C)CC[C@H](O2)C1=O (racemic) [Compound A-29] | 40% | 100% | 100% | 50% | 60% | 90% | 30% | 50% |  |  |  |  |  |  |  | 
CCc1cc(-c2ccc(Cl)c(F)c2F)ccc1C1=C(O)[C@@]2(C)CC[C@H](O2)C1=O (racemic) [Compound A-30] | 0% | 90% | 50% | 0% | 0% | 30% | 0% | 0% |  |  |  |  |  |  |  | 
CCc1cc(-c2ccc(Cl)c(Cl)c2F)ccc1C1=C(O)[C@@]2(C)CC[C@H](O2)C1=O (racemic) [Compound A-31] | 50% | 100% | 100% | 60% | 40% | 90% | 30% | 30% |  |  |  |  |  |  |  | 
CCc1cc(-c2ccc(Cl)cc2)ccc1C1=C(OC(C)=O)[C@@H]2CC[C@@](C)(O2)C1=O (racemic) [Compound D-1] | 70% | 100% | 100% | 80% | 80% | 90% | 60% | 40% |  |  |  |  |  |  |  | 
CCc1cc(-c2ccc(Cl)cc2Cl)cc(CC)c1C1=C(O)[C@@]2(C)CC[C@H](O2)C1=O (relative stereo) [Compound A-34] |  | 90% | 70% |  | 20% | 30% |  |  |  |  |  |  |  |  |  | 
Cc1cc(-c2ccccc2)cc(C)c1C1=C(O)C(C)(C)OC(C)(C)C1=O [Compound A-1] | 70% | 80% | 100% | 90% | 0% | 50% | 30% | 40% |  |  |  |  |  |  |  | 
Cc1cc(-c2ccccc2)cc(C)c1C1=C(O)[C@@]2(C)C=C[C@H](O2)C1=O [Compound A-2] | 70% | 80% | 100% |  | 0% | 90% |  | 20% | 60 | 50 |  |  |  |  |  | 
Cc1cc(-c2ccccc2)cc(C)c1C1=C(O)[C@@]2(C)C=C[C@H](O2)C1=O [Compound A-3] |  |  |  |  |  |  |  |  | 90 | 0 | 70 | 100 | 100 | 0 | 70 | 20
CCc1cc(-c2ccc(Cl)cc2)ccc1C1=C(O)[C@@]2(C)C=C[C@H](O2)C1=O [Compound A-7] | 0% | 100% | 100% | 0% | 30% | 60% | 0% | 0% |  |  |  |  |  |  |  | 
CCc1cc(-c2cc(Cl)cc(Cl)c2)ccc1C1=C(O)[C@@]2(C)CC[C@H](O2)C1=O [Compound A-15] | 30% | 100% | 100% | 40% | 80% | 100% | 0% | 40% |  |  |  |  |  |  |  | 
CCc1cc(-c2ccc(Cl)cc2C)ccc1C1=C(O)[C@@]2(C)CC[C@H](O2)C1=O [Compound A-16] | 0% | 80% | 20% | 50% | 0% | 90% | 0% | 0% |  |  |  |  |  |  |  | 
CCc1cc(-c2ccc(Cl)c(Cl)c2)ccc1C1=C(O)[C@@]2(C)CC[C@H](O2)C1=O [Compound A-17] | 100% | 100% | 100% | 100% | 100% | 100% | 30% | 80% |  |  |  |  |  |  |  | 
